Activity calls are given as the source filed them. The calls are words filed in the database; no cut-off is given here.
tested on: HEp-2; test: Cytotoxicity against human HEp-2 cells assessed as cell growth inhibition measured after 24 hrs by MTT assay; format: functional; details: not given

| SMILES | CC50 [µM] |
| --- | --- |
| CC(C)=CCC/C(C)=C/CCOc1ccc2c3c(c(=O)oc2c1)CCC3 | 26.6 |
| Cc1cc(=O)oc2cc(OCc3cn(CCC(C)CCCC(C)C)nn3)ccc12 (stereo not given) | 16.1 |
| CC(C)=CCCC(C)=CCn1cc(COc2ccc3c4c(c(=O)oc3c2)CCCC4)nn1 | 279 |
| CC(C)CCCC(C)CCn1cc(COc2ccc3c4c(c(=O)oc3c2)CCCC4)nn1 (stereo not given) | 22.2 |
| CC(C)=CCC/C(C)=C/CCOc1ccc2c3c(c(=O)oc2c1)CCCC3 | 51.1 |
| CC(C)c1ccc(Cn2cc(COc3ccc4c(-c5ccccc5)cc(=O)oc4c3)nn2)cc1 | 85.7 |
| CC(C)=CCC/C(C)=C\Cn1cc(COc2ccc3c(C)cc(=O)oc3c2)nn1 | 14.7 |
| Cc1cc(=O)oc2cc(OCc3cn(Cc4ccc(C(C)C)cc4)nn3)ccc12 | 20 |
| CC(C)c1ccc(Cn2cc(COc3ccc4c5c(c(=O)oc4c3)CCC5)nn2)cc1 | 38.5 |
| CC1(C)[C@H]2CC=C(Cn3cc(COc4ccc5c6c(c(=O)oc5c4)CCCC6)nn3)[C@@H]1C2 | 30.1 |
| CC1(C)[C@H]2CC=C(COc3ccc4c5c(c(=O)oc4c3)CCCC5)[C@@H]1C2 | 334 |
| CC1(C)[C@@H]2CC=C(Cn3cc(COc4ccc5c(-c6ccccc6)cc(=O)oc5c4)nn3)[C@H]1C2 | 43.4 |
| CC(C)CCCC(C)CCn1cc(COc2ccc3c4c(c(=O)oc3c2)CCC4)nn1 (stereo not given) | 264 |
| CC1(C)[C@H]2CC=C(COc3ccc4c5c(c(=O)oc4c3)CCC5)[C@@H]1C2 | 13.4 |
| CC(C)c1ccc(Cn2cc(COc3ccc4c5c(c(=O)oc4c3)CCCC5)nn2)cc1 | 37.7 |
| CC(C)=CCC/C(C)=C/CCOc1ccc2c(C)cc(=O)oc2c1 | 483 |

tested on: Human orthopneumovirus; test: Antiviral activity against Respiratory syncytial virus type A infected in human HEp-2 cells assessed as inhibition of viral replication preincubated with cells followed by compound washout followed by viral infection and measured after 25 hrs by ELISA method; format: functional, organism-based; details: not given

| SMILES | Activity |
| --- | --- |
| CC1(C)[C@H]2CC=C(Cn3cc(COc4ccc5c6c(c(=O)oc5c4)CCCC6)nn3)[C@@H]1C2 | Weak_effect |
| CC(C)CCCC(C)CCn1cc(COc2ccc3c4c(c(=O)oc3c2)CCC4)nn1 (stereo not given) | Weak_effect |

tested on: not listed separately; test: Selectivity index, ratio of CC50 for human HEp-2 cells to IC50 for Respiratory syncytial virus type B infected in human HEp-2 cells; format: cell-based; details: read-out: Ratio CC50/IC50

| SMILES | selectivity ratio |
| --- | --- |
| CC(C)=CCC/C(C)=C/CCOc1ccc2c3c(c(=O)oc2c1)CCC3 | 1.8 |
| Cc1cc(=O)oc2cc(OCc3cn(CCC(C)CCCC(C)C)nn3)ccc12 (stereo not given) | 4.1 |
| CC(C)=CCCC(C)=CCn1cc(COc2ccc3c4c(c(=O)oc3c2)CCCC4)nn1 | 233 |
| CC(C)CCCC(C)CCn1cc(COc2ccc3c4c(c(=O)oc3c2)CCCC4)nn1 (stereo not given) | 4.9 |
| CC(C)=CCC/C(C)=C/CCOc1ccc2c3c(c(=O)oc2c1)CCCC3 | 85.2 |
| CC(C)c1ccc(Cn2cc(COc3ccc4c(-c5ccccc5)cc(=O)oc4c3)nn2)cc1 | 12.9 |
| CC(C)=CCC/C(C)=C\Cn1cc(COc2ccc3c(C)cc(=O)oc3c2)nn1 | 13.4 |
| Cc1cc(=O)oc2cc(OCc3cn(Cc4ccc(C(C)C)cc4)nn3)ccc12 | 6.3 |
| CC(C)c1ccc(Cn2cc(COc3ccc4c5c(c(=O)oc4c3)CCC5)nn2)cc1 | 1.5 |
| CC1(C)[C@H]2CC=C(Cn3cc(COc4ccc5c6c(c(=O)oc5c4)CCCC6)nn3)[C@@H]1C2 | 23.3 |
| CC1(C)[C@H]2CC=C(COc3ccc4c5c(c(=O)oc4c3)CCCC5)[C@@H]1C2 | 5.5 |
| CC1(C)[C@@H]2CC=C(Cn3cc(COc4ccc5c(-c6ccccc6)cc(=O)oc5c4)nn3)[C@H]1C2 | 6.8 |
| CC(C)CCCC(C)CCn1cc(COc2ccc3c4c(c(=O)oc3c2)CCC4)nn1 (stereo not given) | 1150 |
| CC1(C)[C@H]2CC=C(COc3ccc4c5c(c(=O)oc4c3)CCC5)[C@@H]1C2 | 0.9 |
| CC(C)c1ccc(Cn2cc(COc3ccc4c5c(c(=O)oc4c3)CCCC5)nn2)cc1 | 1.6 |
| CC(C)=CCC/C(C)=C/CCOc1ccc2c(C)cc(=O)oc2c1 | 9.2 |

tested on: not listed separately; test: Selectivity index, ratio of CC50 for human HEp-2 cells to IC50 for Respiratory syncytial virus type A infected in human HEp-2 cells; format: cell-based; details: read-out: Ratio CC50/IC50

| SMILES | selectivity ratio |
| --- | --- |
| CC(C)=CCC/C(C)=C/CCOc1ccc2c3c(c(=O)oc2c1)CCC3 | < 1 |
| Cc1cc(=O)oc2cc(OCc3cn(CCC(C)CCCC(C)C)nn3)ccc12 (stereo not given) | 3.8 |
| CC(C)=CCCC(C)=CCn1cc(COc2ccc3c4c(c(=O)oc3c2)CCCC4)nn1 | 605 |
| CC(C)CCCC(C)CCn1cc(COc2ccc3c4c(c(=O)oc3c2)CCCC4)nn1 (stereo not given) | 6.1 |
| CC(C)=CCC/C(C)=C/CCOc1ccc2c3c(c(=O)oc2c1)CCCC3 | 90 |
| CC(C)c1ccc(Cn2cc(COc3ccc4c(-c5ccccc5)cc(=O)oc4c3)nn2)cc1 | 17 |
| CC(C)=CCC/C(C)=C\Cn1cc(COc2ccc3c(C)cc(=O)oc3c2)nn1 | > 96 |
| Cc1cc(=O)oc2cc(OCc3cn(Cc4ccc(C(C)C)cc4)nn3)ccc12 | 9 |
| CC(C)c1ccc(Cn2cc(COc3ccc4c5c(c(=O)oc4c3)CCC5)nn2)cc1 | 1.8 |
| CC1(C)[C@H]2CC=C(Cn3cc(COc4ccc5c6c(c(=O)oc5c4)CCCC6)nn3)[C@@H]1C2 | 50 |
| CC1(C)[C@H]2CC=C(COc3ccc4c5c(c(=O)oc4c3)CCCC5)[C@@H]1C2 | 3.5 |
| CC1(C)[C@@H]2CC=C(Cn3cc(COc4ccc5c(-c6ccccc6)cc(=O)oc5c4)nn3)[C@H]1C2 | 10 |
| CC(C)CCCC(C)CCn1cc(COc2ccc3c4c(c(=O)oc3c2)CCC4)nn1 (stereo not given) | 160 |
| CC1(C)[C@H]2CC=C(COc3ccc4c5c(c(=O)oc4c3)CCC5)[C@@H]1C2 | < 1 |
| CC(C)c1ccc(Cn2cc(COc3ccc4c5c(c(=O)oc4c3)CCCC5)nn2)cc1 | 1.7 |
| CC(C)=CCC/C(C)=C/CCOc1ccc2c(C)cc(=O)oc2c1 | 10.3 |

tested on: Human orthopneumovirus; test: Antiviral activity against Respiratory syncytial virus type A infected in human HEp-2 cells assessed as inhibition of viral replication preincubated with cells followed by viral infection for 1 hr followed by virus washout and further incubated with compound for 6 days by ELISA method; format: functional, organism-based; details: read-out: IC50

| SMILES | IC50 [µM] |
| --- | --- |
| CC(C)=CCC/C(C)=C/CCOc1ccc2c3c(c(=O)oc2c1)CCC3 | > 26 |
| Cc1cc(=O)oc2cc(OCc3cn(CCC(C)CCCC(C)C)nn3)ccc12 (stereo not given) | 4.3 |
| CC(C)=CCCC(C)=CCn1cc(COc2ccc3c4c(c(=O)oc3c2)CCCC4)nn1 | 0.46 |
| CC(C)CCCC(C)CCn1cc(COc2ccc3c4c(c(=O)oc3c2)CCCC4)nn1 (stereo not given) | 3.7 |
| CC(C)=CCC/C(C)=C/CCOc1ccc2c3c(c(=O)oc2c1)CCCC3 | 0.57 |
| CC(C)c1ccc(Cn2cc(COc3ccc4c(-c5ccccc5)cc(=O)oc4c3)nn2)cc1 | 4.9 |
| CC(C)=CCC/C(C)=C\Cn1cc(COc2ccc3c(C)cc(=O)oc3c2)nn1 | < 0.2 |
| Cc1cc(=O)oc2cc(OCc3cn(Cc4ccc(C(C)C)cc4)nn3)ccc12 | 2.2 |
| CC(C)c1ccc(Cn2cc(COc3ccc4c5c(c(=O)oc4c3)CCC5)nn2)cc1 | 21.7 |
| CC1(C)[C@H]2CC=C(Cn3cc(COc4ccc5c6c(c(=O)oc5c4)CCCC6)nn3)[C@@H]1C2 | 0.6 |
| CC1(C)[C@H]2CC=C(COc3ccc4c5c(c(=O)oc4c3)CCCC5)[C@@H]1C2 | 108 |
| CC1(C)[C@@H]2CC=C(Cn3cc(COc4ccc5c(-c6ccccc6)cc(=O)oc5c4)nn3)[C@H]1C2 | 4.2 |
| CC(C)CCCC(C)CCn1cc(COc2ccc3c4c(c(=O)oc3c2)CCC4)nn1 (stereo not given) | 1.7 |
| CC1(C)[C@H]2CC=C(COc3ccc4c5c(c(=O)oc4c3)CCC5)[C@@H]1C2 | > 13 |
| CC(C)c1ccc(Cn2cc(COc3ccc4c5c(c(=O)oc4c3)CCCC5)nn2)cc1 | 22.1 |
| CC(C)=CCC/C(C)=C/CCOc1ccc2c(C)cc(=O)oc2c1 | 46.7 |

same assay, conditions: read-out: pIC50 (converted)

| SMILES | IC50 [µM] |
| --- | --- |
| Cc1cc(=O)oc2cc(OCc3cn(CCC(C)CCCC(C)C)nn3)ccc12 (stereo not given) | 4.27 |
| CC(C)=CCCC(C)=CCn1cc(COc2ccc3c4c(c(=O)oc3c2)CCCC4)nn1 | 0.457 |
| CC(C)CCCC(C)CCn1cc(COc2ccc3c4c(c(=O)oc3c2)CCCC4)nn1 (stereo not given) | 3.72 |
| CC(C)=CCC/C(C)=C\Cn1cc(COc2ccc3c(C)cc(=O)oc3c2)nn1 | 0.151 |
| CC(C)CCCC(C)CCn1cc(COc2ccc3c4c(c(=O)oc3c2)CCC4)nn1 (stereo not given) | 4.07 |

tested on: Human orthopneumovirus; test: Antiviral activity against Respiratory syncytial virus type A infected in human HEp-2 cells assessed as inhibition of viral replication preincubated with cells and simultaneously with virus and measured after 25 hrs by ELISA method; format: functional, organism-based; details: not given

| SMILES | Activity |
| --- | --- |
| CC(C)=CCCC(C)=CCn1cc(COc2ccc3c4c(c(=O)oc3c2)CCCC4)nn1 | inactive |
| CC1(C)[C@H]2CC=C(Cn3cc(COc4ccc5c6c(c(=O)oc5c4)CCCC6)nn3)[C@@H]1C2 | Weak_effect |
| CC(C)CCCC(C)CCn1cc(COc2ccc3c4c(c(=O)oc3c2)CCC4)nn1 (stereo not given) | Weak_effect |

tested on: Human orthopneumovirus; test: Antiviral activity against Respiratory syncytial virus type B infected in human HEp-2 cells assessed as inhibition of viral replication preincubated with cells followed by viral infection for 1 hr followed by virus washout and further incubated with compound for 6 days by ELISA method; format: functional, organism-based; details: not given

| SMILES | EC50 [µM] |
| --- | --- |
| CC(C)=CCC/C(C)=C/CCOc1ccc2c3c(c(=O)oc2c1)CCC3 | 15.2 |
| CC1(C)[C@H]2CC=C(COc3ccc4c5c(c(=O)oc4c3)CCC5)[C@@H]1C2 | > 13 |

same assay, conditions: read-out: IC50

| SMILES | IC50 [µM] |
| --- | --- |
| Cc1cc(=O)oc2cc(OCc3cn(CCC(C)CCCC(C)C)nn3)ccc12 (stereo not given) | 3.9 |
| CC(C)=CCCC(C)=CCn1cc(COc2ccc3c4c(c(=O)oc3c2)CCCC4)nn1 | 1.2 |
| CC(C)CCCC(C)CCn1cc(COc2ccc3c4c(c(=O)oc3c2)CCCC4)nn1 (stereo not given) | 4.5 |
| CC(C)=CCC/C(C)=C/CCOc1ccc2c3c(c(=O)oc2c1)CCCC3 | 0.6 |
| CC(C)c1ccc(Cn2cc(COc3ccc4c(-c5ccccc5)cc(=O)oc4c3)nn2)cc1 | 6.6 |
| CC(C)=CCC/C(C)=C\Cn1cc(COc2ccc3c(C)cc(=O)oc3c2)nn1 | 1.1 |
| Cc1cc(=O)oc2cc(OCc3cn(Cc4ccc(C(C)C)cc4)nn3)ccc12 | 3.2 |
| CC(C)c1ccc(Cn2cc(COc3ccc4c5c(c(=O)oc4c3)CCC5)nn2)cc1 | 25.6 |
| CC1(C)[C@H]2CC=C(Cn3cc(COc4ccc5c6c(c(=O)oc5c4)CCCC6)nn3)[C@@H]1C2 | 1.3 |
| CC1(C)[C@H]2CC=C(COc3ccc4c5c(c(=O)oc4c3)CCCC5)[C@@H]1C2 | 60.5 |
| CC1(C)[C@@H]2CC=C(Cn3cc(COc4ccc5c(-c6ccccc6)cc(=O)oc5c4)nn3)[C@H]1C2 | 6.3 |
| CC(C)CCCC(C)CCn1cc(COc2ccc3c4c(c(=O)oc3c2)CCC4)nn1 (stereo not given) | 0.23 |
| CC(C)c1ccc(Cn2cc(COc3ccc4c5c(c(=O)oc4c3)CCCC5)nn2)cc1 | 23.5 |
| CC(C)=CCC/C(C)=C/CCOc1ccc2c(C)cc(=O)oc2c1 | 52.4 |

same assay, conditions: read-out: pIC50 (converted)

| SMILES | IC50 [µM] |
| --- | --- |
| Cc1cc(=O)oc2cc(OCc3cn(CCC(C)CCCC(C)C)nn3)ccc12 (stereo not given) | 3.89 |
| CC(C)=CCCC(C)=CCn1cc(COc2ccc3c4c(c(=O)oc3c2)CCCC4)nn1 | 1.2 |
| CC(C)CCCC(C)CCn1cc(COc2ccc3c4c(c(=O)oc3c2)CCCC4)nn1 (stereo not given) | 4.47 |
| CC(C)=CCC/C(C)=C\Cn1cc(COc2ccc3c(C)cc(=O)oc3c2)nn1 | 1.1 |
| CC(C)CCCC(C)CCn1cc(COc2ccc3c4c(c(=O)oc3c2)CCC4)nn1 (stereo not given) | 5.25 |
